{"source": "patent US20230048170A1", "about": "“COMPOSITION INCLUDING CATIONIC POLYSACCHARIDE AND ANIONIC ANTIOXIDANT” (priority 2019, published 2023)", "assay": "Solubilisation of baicalin in alkaline water with or without polyquaternium-67", "format": "physicochemical", "settings": "pH 10", "protocol": "In Examples 1-3, a polyquaternium-67 (PQ-67) was dissolved in water to prepare a PQ-67 aqueous solution. Then, the pH of the solution was adjusted to 10 by adding 1M NaOH aqueous solution. Next, baicalin was added to the alkaline solution as much as possible. In the compositions according to Examples 1-3, […] was able to be solubilized up to an amount of 0.1% by weight, 0.2% by weight and 0.25% by weight, respectively, relative to the total weight of the composition.\nOn the other hand, in the composition according to Comparative Example 1 including no PQ-67, the solubilized amount of […] was limited only to 0.025% by weight relative to the total weight of the composition.\nThus, by forming a complex by the electrostatic interaction, the solubility of baicalin increased up to 10 folds.", "data": [{"smiles": "O=C(O)[C@H]1O[C@@H](Oc2cc3oc(-c4ccccc4)cc(=O)c3c(O)c2O)[C@H](O)[C@@H](O)[C@@H]1O", "note": "[baicalin]", "values": [{"measurement": "increase of solubility of baicalin by complex formation with PQ-67", "result": "up to 10 folds"}]}]}
